Test results published in patent US8829014B2, “Thiazole and thiophene analogues, and their use in treating autoimmune diseases and cancers” (Board of Supervisors of Louisiana State University and …, priority 2006, dated 2014).
Entries after “also recorded” stand apart in the source; their conditions may differ. Read-outs that look alike come from different tables or passages of the source. Marks after values point to notes of the source that are not given here.

Key:
carageenan-induced edema = test: Carrageenan-induced rat paw edema test (anti-inflammatory activity); type: in vivo, Sprague-Dawley rats; conditions: for inhibition in vivo at 50 mg/kg: po, 3 h
How it was run: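 Sprague-Dawley rats (male and female, 150-250 g), fasted 18 h, given compound orally at 50 mg/kg in 0.1% sodium CMC (alternatively i.v., s.c. or i.p.). 1% carrageenan injected sub-plantar in right hind paw 1 h later. Paw displacement read again 3 h later; % protection = [(Control−Test)/Control]×100 versus saline control.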

NF-κB [1] = test: NF-κB inhibitor screen: basal NF-κB-dependent luciferase expression in HEK/NF-κB cell line; type: cell-based
How it was run: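 HEK293 cells stably carrying a luciferase reporter under six NF-κB elements were treated with compound, unstimulated, 24 h after plating. Compounds were first tested at 1.0 μM (0.3% DMSO), later at six doses from 10 to 3300 nM, in triplicate. Brite-Glo luciferase signal was normalized to DMSO, or to the lowest dose for dose-response runs.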

AP-1 [2] = test: AP-1 inhibitor screen: basal AP-1-dependent luciferase expression in HEK/AP-1 cell line; type: cell-based
How it was run: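 HEK293 cells stably carrying a luciferase reporter driven by three AP-1 elements were plated 24 hr, then given compound at 1.0 μM in 0.3% DMSO for 48 hr, in triplicate. Basal expression without stimulus was read as luminescence (Brite-Glo), normalized to DMSO; dose-response runs repeated two to four times.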

eIF4E = eIF4E inhibitor screen: luciferase under FGF 5′UTR in FaDu cells (highly cap-dependent translation); type: cell-based; conditions: for luciferase expression under the control of the FGF 5′UTR: 1.0 μM, 48 h, FaDu UTR cells, normalized to DMSO (FIG. 8)
Excerpt: Since highly cap-dependent translation is associated with synthesis of proteins involved in cancer, a compound that inhibits this pathway may be used as an anti-cancer agent. The assay was developed by cloning the highly structured 5′ UTR of FGF, which requires high levels of eIF4E before protein synthesis can initiate, into the proper orientation of the reporter gene luciferase, and then stably transfecting the modified luciferase gene into the cell line FaDu that is known to have high levels of eIF4E. The activity of luciferase is then monitored in the presence and absence of the tested compound.
Generation of Stable Cell Lines: The pMS110 plasmid (pGL3-control plasmid from Promega which contains a neo selectable marker) was used to generate pMS110-5′UTR by cloning the 5′ UTR of FGF just upstream of the luciferase AUG start codon. FaDu cells, a head and neck cancer cell line, were transfected using Lipofectamine2000 (Invitrogen). Twenty-four hours after transfection G418 was added at 500 μg/ml. Cells were maintained in G418 for 14 days, and then individual colonies were transferred to a 96-well plate for propagation. Individual clones were analyzed for luciferase expression by plating 10^4 cells per well in a 96-well plate for 24 hours before lysing the cells and analyzing for luciferase activity in a Victor III (Perkin Elmer) or Lucy2 (Rosys Anthos). FaDu9000 and FaDuUTR were the clones that expressed the highest level of active luciferase following transfection of pMS110 and pMS110-5′UTR, respectively.
Analysis of Rapamycin Responsiveness: Cells of FaDu9000 and FaDuUTR were plated at 1×10^4 cells/well in a 96-well dish. Twenty-four hours after plating, 0.1% DMSO (vehicle control) or 10 nM rapamycin were added to each well, and the cells were maintained for an additional 24 or 48 hours. The cells were then lysed and luciferase activity was determined using BriteGlo (Promega) as per manufacturer's instruction and recorded using the Victor III. Following subtraction of background activity, the mean value of quadruplicate samples for a given experiment was determined, and the treated cells were normalized to the control. At least four separate experiments were conducted, and the mean and standard error were calculated. To determine if rapamycin affected cell viability, an MTS assay (Cell Proliferation One Solution, Promega) was carried out on each population at 48 hours in two separate experiments.
The FaDu cell line stably transfected with FGF 5′UTR was used to screen thirty-nine representative compounds, each at a concentration of 1.0 μM. Additional cells were treated with vehicle, 0.3% DMSO. Cells were plated for twenty-four hours in a 96-well plate. Each compound was then added to triplicate wells, and the cells were incubated for forty-eight hours before measuring luciferase activity as above. The mean luciferase activity was measured using Promega's Brite-Glo kit, and the mean for each sample was normalized to DMSO. The experiment was then repeated, and the average and standard deviation of the two experiments were determined (FIG. 8).

NF-κB [3] = test: TNF-α-induced NF-κB-dependent luciferase expression in HEK cells; type: cell-based; design: NF-κB % inhibition: concentration or dose not given beside the values
AP-1 [4] = test: PMA-induced AP-1 luciferase expression in HEK cells; type: cell-based
[5] = system: vascular smooth muscle cells (VSMC); test: LDH release cytotoxicity in VSMC; type: cell-based; conditions: VSMC, 10 μM, 48 h, relative to vehicle
Method: (§1) Additional compounds have also been tested for their ability to inhibit both TNF-α-induced NF-κB—expression and PMA-induced AP-1 expression. In both tests, the compound was added for 1 h, then the appropriate inducer was added, and luciferase activity was monitored 24 h later. Values were then normalized to the vehicle control, DMSO. Following the initial luciferase screens, studies were conducted to assess the cytotoxicity of the compounds in normal cells such as VSMC, HUVEC, or HPT cells. Human umbilical vein endothelial cells (HUVEC) represent the normal endothelium, vascular smooth muscle cells (VSMC) were represented by cells from the adult rat aorta, and human proximal tubule (HPT) cells represent the normal proximal tubule in vivo. These cells were grown to near confluency in multi-well plates, and were then treated for 48 h with either vehicle (0.1% DMSO) or 10 μM of each drug candidate. Following treatment, the media from the VSMC and HUVEC incubations were removed, and the amount of lactate dehydrogenase (LDH) released into the medium was determined with a commercial kit. LDH is normally confined to the cytosol, and its release represents “leakiness” of the plasma membrane. LDH activity was expressed as % increase over vehicle-treated cells. In another assay of viability, the treated VSMC and HUVEC were removed by trypsinization and treated with trypan blue, a dye that is taken up only by dead cells. The number of both live and dead cells was counted using an automated cell viability analyzer. The % decrease in numbers of viable cells was determined. Toxicity in the treated HPT cells was determined by the ethidium homodimer (EthHD) uptake assay. EthHD is a fluorescent dye that is excluded from live cells, but is taken up by cells that have lost permeability barriers. Inside the cell, EthHD produces a strong fluorescent signal, which is proportional to the number of dead cells. Results were expressed as a % increase in cell death over vehicle-treated cells. The lead compounds were also tested in two pairs of cell lines from either the skin or prostate, one tumorigenic and one non-tumorigenic, to test for any differences in toxicity or heightened sensitivity in the tumorigenic lines. The cells were treated for 48 h with vehicle (0.1% DMSO) or 10 μM of each drug candidate. Following treatment, the viability of the cells was determined by the MTT assay. In this assay, the MTT dye is converted only in viable cells by intracellular enzymes to a colorimetric product that is quantitated by a microplate reader.
(§2) For the results in Table 13, cells were grown to near confluency in multi-well plates, then treated for 48 h with either vehicle (0.1% DMSO) or 10 μM of each drug candidate. Following treatment, the media from the VSMC and HUVEC incubations were removed, and the amount of lactate dehydrogenase (LDH) released into the medium was determined with a commercial kit and expressed as a % increase over vehicle-treated cells. HPT toxicity was determined by the ethidium homodimer (EthHD) uptake assay. Inside the cell, EthHD produces a strong fluorescent signal, which is proportional to the amount of cell death, expressed as a % increase in cell death over vehicle-treated cells. The lead compounds were also tested in two pairs of cell lines from the skin or prostate, one tumorigenic and one non-tumorigenic, to test for differing toxicity or heightened sensitivity in the tumorigenic lines. The cells were treated for 48 h with vehicle (0.1% DMSO) or 10 μM of each drug candidate, and the viability of the cells was determined by the MTT assay, expressed as a % decrease in viability compared to vehicle-treated cells. The in vivo inflammation model measured the % inhibition of rat paw edema induced by carageenan injection.

[6] = system: Human umbilical vein endothelial cells (HUVEC); test: LDH release cytotoxicity in HUVEC; type: cell-based; conditions: HUVEC, 10 μM, 48 h, relative to vehicle
Method: as §1, §2

[7] = system: vascular smooth muscle cells (VSMC); test: Trypan blue viability count in VSMC; type: cell-based; conditions: VSMC, 10 μM, 48 h, relative to vehicle
Method: as §1

[8] = system: Human umbilical vein endothelial cells (HUVEC); test: Trypan blue viability count in HUVEC; type: cell-based; conditions: HUVEC, 10 μM, 48 h, relative to vehicle
Method: as §1

[9] = system: human proximal tubule (HPT) cells; test: Ethidium homodimer (EthHD) uptake toxicity assay in HPT cells; type: cell-based; conditions: 10 μM, 48 h, relative to vehicle
Method: as §1, §2

[10] = system: cell lines from the skin, one tumorigenic and one non-tumorigenic; test: MTT viability in skin cell line pair, tumorigenic and non-tumorigenic; type: cell-based
Method: as §1, §2

Compound: CCOC(=O)Nc1nc(-c2ccccc2)c(-c2nc3ccccc3c(=O)n2-c2ccccc2)s1 [Example 159, [5-(4-Oxo-3-phenyl-3,4-dihydro-quinazolin-2-yl)-4-phenyl-thiazol-2-yl]-carbamic acid ethyl ester]
- inhibition in vivo at 50 mg/kg (carageenan-induced edema; carrageenan-induced rat paw edema, defined in Example 397, read-out: % Protection): 75%
- inhibition at 1 µM (NF-κB [1]; 1 uM, determined as described in Example 398, read-out: NFkB inhibition @ 1 uM): 80%
- inhibition at 1 µM (AP-1 [2]; AP1, 1 uM, determined as described in Example 398): 7%
- luciferase expression under the control of the FGF 5′UTR (eIF4E): increased luciferase expression

Compound: N-{4-{5-[4-(4-acetylamino-phenyl)-5-morpholin-4-yl-thiophene-2-carbonyl]-2-morpholin-4-yl-thiophene-3-yl}-phenyl)-acetamide [Example 113]
- luciferase expression under the control of the FGF 5′UTR (eIF4E): increased luciferase expression

Compound: Bis-(2-phenylamino-4-benzayl-thiazole-5-yl)-methanone [Example 133]
- % Protection P (carageenan-induced edema; rat paw edema, 50 mg/kg, reading 3 hours after carrageenan, [(Control−Test)/Control]×100%): 19.09%
- luciferase expression under the control of the FGF 5′UTR (eIF4E): inhibited luciferase expression
- NFkB inhibition @ 1 uM (NF-κB [3]; 1 uM, luciferase in HEK/NF-κB cells, as described in Example 398): 17.74
- AP-1 inhibition @ 1 uM (AP-1 [4]; 1 uM, luciferase in HEK/AP-1 cells, as described in Example 398): 24.53

Compound: O=C(c1sc(Nc2ccccc2)nc1-c1ccccc1)c1sc(Nc2ccccc2)nc1-c1ccccc1 [Example 126, Bis-(2-phenylamino-4-phenyl-thiazole-5-yl)-methanone]
- inhibition in vivo at 50 mg/kg (carageenan-induced edema; Rattus norvegicus, rat paw edema, 50 mg/kg, reading 3 hours after carrageenan, [(Control−Test)/Control]×100%, read-out: % Protection P): 64.5%
- luciferase expression under the control of the FGF 5′UTR (eIF4E): increased luciferase expression
- inhibition at 1 µM (NF-κB [3]; Homo sapiens, HEK293, 1 uM, luciferase in HEK/NF-κB cells, as described in Example 398, read-out: NFkB inhibition @ 1 uM): 22.2%
- inhibition at 1 µM (AP-1 [4]; AP1, 1 uM, luciferase in HEK/AP-1 cells, as described in Example 398): 27.1%

Compound: 2-(4-Methyl-2-methylamino-thiazol-5-yl)-3-(4-chloro-phenyl)-3H-quinazolin-4-one [Example 244]
- basal NF-κB-dependent luciferase, six-point dose response (NF-κB [1]; 10 nM-3300 nM (FIG. 12), listed as Compound 4): substantial activity at submicromolar concentrations; also recorded: robust inhibition
- inhibition of basal NF-κB-dependent luciferase expression (NF-κB [1]; 3.3 μM (FIG. 12)): about 50%
- inhibition of NF-κB (summary statement) (NF-κB [1]; summary in the disclosure): capable of inhibiting
- basal AP-1-dependent luciferase, six-point dose response (AP-1 [2]; 10 nM-3300 nM (FIG. 14)): substantial activity at submicromolar concentrations
- luciferase expression under the control of the FGF 5′UTR (eIF4E): inhibited luciferase expression
- inhibition of highly cap-dependent translation (summary statement) (eIF4E; summary in the disclosure): capable of inhibiting

Compound: COc1ccc(C(=O)c2sc(Nc3ccccc3)nc2N)cc1 [Example 115, (4-Amino-2-phenylamino-thiazole-5-yl)-4-(methoxy-phenyl)-methanone]
- % Protection P (carageenan-induced edema; rat paw edema, 50 mg/kg, reading 3 hours after carrageenan, [(Control−Test)/Control]×100%, 50 mg/kg): 90.92%
- basal NF-κB-dependent luciferase expression (NF-κB [1]; 1.0 μM screen of 39 compounds (FIG. 11)): potentiated expression in one of the two experiments
- luciferase expression under the control of the FGF 5′UTR (eIF4E): increased luciferase expression

Compound: COc1ccc(-n2c(-c3cc(-c4ccc(S(C)(=O)=O)cc4)c(N4CCOCC4)s3)nc3ccccc3c2=O)cc1 [PMCR216]
- NF-κB % inhibition (NF-κB [3]; TNF-α-induced, compound added 1 h before inducer, luciferase 24 h later, normalized to DMSO vehicle): 60** %
- AP-1 % inhibition (AP-1 [4]; PMA-induced, compound added 1 h before inducer, luciferase 24 h later, normalized to DMSO vehicle): 10%
- LDH release % Increase VSMC [5]: −10%
- LDH release % Increase HUVEC [6]: 0%
- Viable Cells % Decrease VSMC [7]: 6%
- Viable Cells % Decrease HUVEC [8]: −1%
- Cell Death (EthHD) % Increase HPT [9]: 152# %
- Viability (MTT) % Decrease HaCaT [10]: −21%
- Viability (MTT) % Decrease SRB12-p9 [10]: 16%
